According to patent US20070032556A1, “Aromatic polyamine derivative” (priority 2003, published 2007):
Where two headings read alike, the source gives them in different places.

Test: solubility of the monomers or polymer in the coating solvent
Type: physicochemical
Description: In 100 g of mesitylene were dissolved 2.48 g (8 mmol) of 1,3,5-adamantanetricarboxylic acid trimethyl ester prepared in Synthesis Example 1 and 6.42 g (12 mmol) of 3,3′-diaminobenzidinetetracyclohexanoimine[N,N′,N″,N′″-tetracyclohexylidene-3,4,3′,4′-biphenyltetramine] prepared in Example 5 at room temperature in a nitrogen atmosphere and thereby yielded a coating composition having a monomer concentration of 8.2 percent by weight. The coating composition was passed through a filter with a pore size of 0.1 micron and was applied to an 8-inch silicon wafer by spin coating. This was heated at 300° C. in a nitrogen atmosphere for thirty minutes, was further heated at 400° C. for thirty minutes, and thereby yielded a film. The infrared absorption spectrum of the resulting polymer film was determined to find that the target crosslinked polybenzimidazole film was formed as shown in the infrared absorption spectral data in FIG. 1. The film has a film thickness of 300 nm.
The procedure of Example 15 was repeated, except for using the same amounts as in Example 15 of 1,3,5-adamantanetricarboxylic acid and 3,3′-diaminobenzidine instead of 1,3,5-adamantanetricarboxylic acid trimethyl ester and N,N′,N″,N′″-tetracyclohexylidene-3,4,3′,4′-biphenyltetramine, respectively, to find the solubility in the solvent (mesitylene) was low. Consequently, a coating composition having a monomer concentration of 1.2 percent by weight was prepared by the procedure of Example 15, except for using 0.54 g (2 mmol) of 1,3,5-adamantanetricarboxylic acid and 0.64 g (3 mmol) of 3,3′-diaminobenzidine. By using this coating composition, a polymer film was prepared by the procedure of […], and the infrared absorption spectrum of the polymer film was determined to find that the target crosslinked polybenzimidazole film was formed. The film has a film thickness of less than 20 nm.
A coating composition having a monomer concentration of 14.7 percent by weight was prepared by dissolving 4.42 g (12 mmol) of 1,3,5,7-adamantanetetracarboxylic acid tetramethyl ester and 12.83 g (24 mmol) of 3,3′-diaminobenzidinetetracyclohexanoimine[N,N′,N″,N′″-tetracyclohexylidene-3,4,3′,4′-biphenyltetramine] prepared according to Example 5 in 100 g of methyl isobutyl ketone (MIBK) at room temperature in a nitrogen atmosphere. The coating composition was passed through a filter with a pore size of 0.1 micron and was applied to an 8-inch silicon wafer by spin coating. This was heated at 300° C. in a nitrogen atmosphere for thirty minutes and further heated at 400° C. for thirty minutes to yield a film. The infrared absorption spectrum of the resulting polymer film was determined to find that the target crosslinked polybenzimidazole film was formed. The film has a film thickness of 400 nm.
The procedure of Example 16 was repeated, except for using the same amounts as in Example 16 of 1,3,5,7-adamantanetetracarboxylic acid and 3,3′-diaminobenzidine instead of 1,3,5,7-adamantanetetracarboxylic acid tetramethyl ester and N,N′,N″,N′″-tetracyclohexylidene-3,4,3′,4′-biphenyltetramine, respectively, to find that the solubility in the solvent (methyl isobutyl ketone: MIBK) was low. Consequently, a coating composition having a monomer concentration of 1.5 percent by weight was prepared by the procedure of Example 16, except for using 0.62 g (2 mmol) of 1,3,5,7-adamantanetetracarboxylic acid and 0.86 g (4 mmol) of 3,3′-diaminobenzidine. By using this coating composition, a polymer film was prepared by the procedure of Example 16, and the infrared absorption spectrum of the film was determined to find that the target crosslinked polybenzimidazole film was formed. The film has a film thickness of less than 20 nm. […]

O=C(O)C12CC3(C(=O)O)CC(C(=O)O)(C1)CC(C(=O)O)(C2)C3 [1,3,5,7-adamantanetetracarboxylic acid]
solubility in the solvent (methyl isobutyl ketone: MIBK): low

O=C(O)C12CC3CC(C(=O)O)(C1)CC(C(=O)O)(C3)C2 [1,3,5-adamantanetricarboxylic acid]
solubility in the solvent (mesitylene): low

Nc1ccc(-c2ccc(N)c(N)c2)cc1N [3,3′-diaminobenzidine]
solubility in the solvent (mesitylene) (same amounts as in Example 15 in 100 g mesitylene, room temperature, nitrogen atmosphere, acid and amine monomer dissolved together): low
solubility in the solvent (methyl isobutyl ketone: MIBK) (same amounts as in Example 16 in 100 g MIBK, room temperature, nitrogen atmosphere, acid and amine monomer dissolved together): low
solubility in the solvent (dioxane) (same amounts as in Example 17 in 100 g dioxane, room temperature, nitrogen atmosphere, together with 1,3,5-adamantanetricarboxylic acid): low

Nc1ccc(-c2ccc(N)c(O)c2)cc1O [3,3′-dihydroxybenzidine]
solubility in the solvent (propylene glycol monomethyl ether: PGME) (same amounts as in Example 19 in 100 g PGME, room temperature, nitrogen atmosphere, together with 1,3,5-adamantanetricarboxylic acid): low
